Series [1] has as its target T1, Neuronal acetylcholine receptor subunit alpha-7 (Rattus norvegicus, UniProt Q05941). Briefly: Partial agonist activity at rat alpha7 nAChR expressed in HEK293 cells co-expressing human RIC3 at holding potential of -90 mV by whole-cell voltage clamp technique. The class given is cell-based.
Series [2] addresses T1, Neuronal acetylcholine receptor subunit alpha-7. Briefly: Agonist activity at rat alpha7 nAChR expressed in HEK293 cells co-expressing human RIC3 measured for 2 mins by FLIPR assay. The class given is cell-based.
Series [3] addresses T2, 5-hydroxytryptamine receptor 3A (Homo sapiens, UniProt P46098).
T2 sequence (P46098 whole entry): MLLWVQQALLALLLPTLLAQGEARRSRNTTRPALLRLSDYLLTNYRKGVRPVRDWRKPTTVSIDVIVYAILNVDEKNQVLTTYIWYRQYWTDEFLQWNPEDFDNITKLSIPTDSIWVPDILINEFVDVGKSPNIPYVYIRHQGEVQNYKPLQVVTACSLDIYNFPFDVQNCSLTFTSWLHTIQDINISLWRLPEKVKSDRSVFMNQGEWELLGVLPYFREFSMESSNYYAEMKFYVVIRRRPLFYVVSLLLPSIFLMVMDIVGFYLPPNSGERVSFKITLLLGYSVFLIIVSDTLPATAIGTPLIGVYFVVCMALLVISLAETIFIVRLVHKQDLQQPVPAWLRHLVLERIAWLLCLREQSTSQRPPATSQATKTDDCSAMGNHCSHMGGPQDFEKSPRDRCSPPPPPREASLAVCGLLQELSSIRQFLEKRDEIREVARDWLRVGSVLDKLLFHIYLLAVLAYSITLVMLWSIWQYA
The series is described as follows: Antagonist activity at human 5-HT3A expressed in HEK293 cells assessed as reduction in acetylcholine-induced activity preincubated for 30 mins followed by addition of acetylcholine measured for 2 mins by Fluo-4AM dye based FLIPR assay. The class given is cell-based.

A short description of series [4]: Selectivity ratio of IC50 for human 5-HT3A expressed in HEK293 cells to EC50 for rat alpha7 nAChR expressed in HEK293 cells co-expressing human RIC3. The class given is ADME, cell-based.
A short description of series [5]: Selectivity ratio of IC50 for human 5-HT3A expressed in HEK293 cells to EC50 for rat alpha1beta1deltaepsilon nAChR expressed in HEK293 cells. The class given is ADME, cell-based.
Series [6] can be described thus: Selectivity ratio of IC50 for human 5-HT3A expressed in HEK293 cells to EC50 for rat alpha3beta4 nAChR expressed in HEK293 cells. The class given is ADME, cell-based.
Series [7] is described as follows: Selectivity ratio of IC50 for human 5-HT3A expressed in HEK293 cells to EC50 for rat alpha4beta2 nAChR expressed in HEK293 cells. The class given is ADME, cell-based.
Series [8] is described as follows: Metabolic stability in human microsomes assessed as compound remaining measured after 10 mins. The class given is ADME, Microsome. The conditions noted are these: read-out: Stability.
Series [9] is described as follows: Metabolic stability in mouse microsomes assessed as compound remaining measured after 10 mins. The following applies: read-out: Stability. The class given is ADME, Microsome.
Series [10] in a line: Metabolic stability in rat microsomes assessed as compound remaining measured after 10 mins. The class given is ADME, Microsome. The following applies: read-out: Stability.
The target of series [11] is T1, Neuronal acetylcholine receptor subunit alpha-7. The series is described as follows: Displacement of [125I]Tyr54-alpha-bungarotoxin from rat alpha7 nAChR expressed in HEK293 cell membranes co-expressing human RIC3 measured after 2 hrs by gamma counting method. Background: Loss of bound radioactivity is the signal in a displacement assay; it reports binding, not function.

Series [12] concerns the target Nicotinic acetylcholine receptor alpha-1/beta-1/delta/epsilon (Rattus norvegicus, UniProt P09660+P25108+P25109+P25110). Briefly: Agonist activity at rat alpha1beta1deltaepsilon nAChR expressed in HEK293 cells for 2 mins by FLIPR assay. The class given is cell-based.
The target in series [13] is Neuronal acetylcholine receptor; alpha3/beta4 (Rattus norvegicus, UniProt P04757+P12392). Briefly: Agonist activity at rat alpha3beta4 nAChR expressed in HEK293 cells for 2 mins by FLIPR assay. The class given is cell-based.
Sequence of Neuronal acetylcholine receptor; alpha3/beta4 (P04757 whole entry): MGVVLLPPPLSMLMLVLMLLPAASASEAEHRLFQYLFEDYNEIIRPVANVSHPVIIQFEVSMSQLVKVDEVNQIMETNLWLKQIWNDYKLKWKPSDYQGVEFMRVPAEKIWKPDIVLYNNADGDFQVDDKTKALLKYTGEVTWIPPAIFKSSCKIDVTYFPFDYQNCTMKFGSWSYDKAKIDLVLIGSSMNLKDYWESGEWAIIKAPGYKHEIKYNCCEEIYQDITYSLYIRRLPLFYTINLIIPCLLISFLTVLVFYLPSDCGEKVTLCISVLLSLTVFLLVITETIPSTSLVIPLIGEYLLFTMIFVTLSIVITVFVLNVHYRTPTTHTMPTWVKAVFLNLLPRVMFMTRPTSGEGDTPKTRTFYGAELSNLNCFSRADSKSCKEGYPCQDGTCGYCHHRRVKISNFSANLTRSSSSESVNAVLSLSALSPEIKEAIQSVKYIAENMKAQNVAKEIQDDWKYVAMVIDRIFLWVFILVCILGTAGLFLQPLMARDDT
Sequence of Neuronal acetylcholine receptor; alpha3/beta4 (P12392 whole entry): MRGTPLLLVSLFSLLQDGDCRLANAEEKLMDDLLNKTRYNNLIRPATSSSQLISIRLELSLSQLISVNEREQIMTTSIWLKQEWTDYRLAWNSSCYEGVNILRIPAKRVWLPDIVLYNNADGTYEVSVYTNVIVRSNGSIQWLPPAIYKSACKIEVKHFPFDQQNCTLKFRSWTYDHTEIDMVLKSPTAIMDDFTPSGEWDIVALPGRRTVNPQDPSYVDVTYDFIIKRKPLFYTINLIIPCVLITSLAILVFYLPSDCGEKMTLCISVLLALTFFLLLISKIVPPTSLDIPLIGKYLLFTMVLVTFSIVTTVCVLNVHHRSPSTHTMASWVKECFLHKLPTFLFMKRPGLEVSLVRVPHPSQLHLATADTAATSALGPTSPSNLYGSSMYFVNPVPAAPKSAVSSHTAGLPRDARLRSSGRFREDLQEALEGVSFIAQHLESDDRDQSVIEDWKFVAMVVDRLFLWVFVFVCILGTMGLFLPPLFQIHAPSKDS
For series [14], the target named is Neuronal acetylcholine receptor; alpha4/beta2 (Rattus norvegicus, UniProt P09483+P12390). The series is described as follows: Agonist activity at rat alpha4beta2 nAChR expressed in HEK293 cells for 2 mins by FLIPR assay. The class given is cell-based.
Sequence of Neuronal acetylcholine receptor; alpha4/beta2 (P09483 whole entry): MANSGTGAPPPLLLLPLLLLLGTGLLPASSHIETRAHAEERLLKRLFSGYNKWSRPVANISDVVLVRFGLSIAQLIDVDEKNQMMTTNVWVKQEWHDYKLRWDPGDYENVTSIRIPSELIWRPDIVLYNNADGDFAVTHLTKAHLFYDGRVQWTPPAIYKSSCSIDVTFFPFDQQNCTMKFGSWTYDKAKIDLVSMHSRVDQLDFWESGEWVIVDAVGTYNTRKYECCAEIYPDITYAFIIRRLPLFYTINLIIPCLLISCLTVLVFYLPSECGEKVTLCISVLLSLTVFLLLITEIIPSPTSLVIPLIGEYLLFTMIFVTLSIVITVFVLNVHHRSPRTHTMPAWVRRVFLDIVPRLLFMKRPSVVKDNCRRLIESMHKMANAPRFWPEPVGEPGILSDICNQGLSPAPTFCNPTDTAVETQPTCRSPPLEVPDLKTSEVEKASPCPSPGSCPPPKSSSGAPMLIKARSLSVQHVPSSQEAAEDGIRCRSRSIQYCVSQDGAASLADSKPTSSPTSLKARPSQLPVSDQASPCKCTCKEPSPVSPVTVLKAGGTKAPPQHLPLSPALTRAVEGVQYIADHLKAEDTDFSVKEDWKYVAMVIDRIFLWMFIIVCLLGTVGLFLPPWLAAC
Sequence of Neuronal acetylcholine receptor; alpha4/beta2 (P12390 whole entry): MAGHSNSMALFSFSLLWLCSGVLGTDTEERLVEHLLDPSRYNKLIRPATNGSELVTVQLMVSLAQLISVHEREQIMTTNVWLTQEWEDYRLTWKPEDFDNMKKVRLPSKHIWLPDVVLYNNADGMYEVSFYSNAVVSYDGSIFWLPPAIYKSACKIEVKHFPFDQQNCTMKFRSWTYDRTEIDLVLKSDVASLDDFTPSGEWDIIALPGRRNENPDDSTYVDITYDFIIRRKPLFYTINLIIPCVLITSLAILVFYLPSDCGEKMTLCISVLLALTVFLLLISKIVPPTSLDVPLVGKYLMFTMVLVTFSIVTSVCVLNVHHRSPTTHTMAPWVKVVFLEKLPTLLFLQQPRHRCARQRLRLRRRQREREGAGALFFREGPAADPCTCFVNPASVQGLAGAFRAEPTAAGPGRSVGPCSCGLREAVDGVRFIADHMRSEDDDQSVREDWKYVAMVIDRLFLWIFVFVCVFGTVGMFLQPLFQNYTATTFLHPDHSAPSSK
Series [15] in a line: Clearance in rat. The conditions noted are these: in vivo. The class given is ADME.
A short description of series [16]: Oral bioavailability in rat at 10 mg/kg. The class given is ADME, organism-based. The following applies: in vivo.
Series [17] can be described thus: Plasma concentration in Wistar rat at 10 mg/kg, sc measured after 30 mins by LC-MS/MS analysis. The class given is ADME, organism-based.
Series [18] can be described thus: Drug uptake in Wistar rat brain at 10 mg/kg, sc measured after 30 mins by LC-MS/MS analysis. The class given is ADME, organism-based. The following applies: read-out: Drug uptake.
Series [19] can be described thus: Ratio of drug level in Wistar rat brain to plasma at 10 mg/kg, sc. The class given is ADME, organism-based. The conditions noted are these: read-out: BPR.
A further series has as its system Mus musculus. The series is described as follows: Cognitive enhancing effect in C57Bl/6 mouse at 3 and 10 mg/kg, sc administered 30 mins prior to training measured after 24 hrs by novel recognition assay. The class given is functional, organism-based.
In series [20] the target is Voltage-gated inwardly rectifying potassium channel KCNH2 (Homo sapiens, UniProt Q12809). The series is described as follows: Inhibition of human ERG by patch clamp assay.
Sequence of Voltage-gated inwardly rectifying potassium channel KCNH2 (Q12809 whole entry): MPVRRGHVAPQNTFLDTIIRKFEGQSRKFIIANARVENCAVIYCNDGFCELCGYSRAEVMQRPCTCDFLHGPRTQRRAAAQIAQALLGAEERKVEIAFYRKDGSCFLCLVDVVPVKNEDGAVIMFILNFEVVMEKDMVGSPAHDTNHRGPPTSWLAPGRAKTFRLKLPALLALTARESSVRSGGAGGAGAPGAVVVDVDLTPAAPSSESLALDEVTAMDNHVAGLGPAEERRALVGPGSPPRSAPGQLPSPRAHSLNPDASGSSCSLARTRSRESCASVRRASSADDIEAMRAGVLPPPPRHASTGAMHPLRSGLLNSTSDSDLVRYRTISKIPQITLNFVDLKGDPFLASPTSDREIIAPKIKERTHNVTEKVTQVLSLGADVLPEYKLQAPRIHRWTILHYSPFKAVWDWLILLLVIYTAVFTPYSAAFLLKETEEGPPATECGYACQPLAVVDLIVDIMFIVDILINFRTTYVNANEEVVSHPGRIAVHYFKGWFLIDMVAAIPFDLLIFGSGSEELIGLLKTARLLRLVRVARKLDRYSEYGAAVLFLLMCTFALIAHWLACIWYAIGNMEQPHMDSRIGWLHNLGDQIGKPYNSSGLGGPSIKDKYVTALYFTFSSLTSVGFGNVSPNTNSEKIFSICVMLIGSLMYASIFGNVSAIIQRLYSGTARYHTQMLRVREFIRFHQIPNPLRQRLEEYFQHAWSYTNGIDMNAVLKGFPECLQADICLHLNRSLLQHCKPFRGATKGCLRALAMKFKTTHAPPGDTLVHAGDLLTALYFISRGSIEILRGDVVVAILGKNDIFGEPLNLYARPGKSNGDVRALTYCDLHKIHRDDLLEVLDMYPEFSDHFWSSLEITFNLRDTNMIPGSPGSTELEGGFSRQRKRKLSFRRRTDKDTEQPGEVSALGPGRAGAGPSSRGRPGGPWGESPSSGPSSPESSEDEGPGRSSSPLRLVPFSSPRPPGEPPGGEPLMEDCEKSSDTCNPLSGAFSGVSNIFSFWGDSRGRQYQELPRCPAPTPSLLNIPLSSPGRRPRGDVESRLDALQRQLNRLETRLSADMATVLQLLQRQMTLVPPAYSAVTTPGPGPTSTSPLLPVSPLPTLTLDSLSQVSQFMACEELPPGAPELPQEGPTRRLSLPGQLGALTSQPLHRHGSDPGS

The source made the active and inactive calls. The calls are words filed in the database; no cut-off is given here.

T1 sequence (Q05941 whole entry): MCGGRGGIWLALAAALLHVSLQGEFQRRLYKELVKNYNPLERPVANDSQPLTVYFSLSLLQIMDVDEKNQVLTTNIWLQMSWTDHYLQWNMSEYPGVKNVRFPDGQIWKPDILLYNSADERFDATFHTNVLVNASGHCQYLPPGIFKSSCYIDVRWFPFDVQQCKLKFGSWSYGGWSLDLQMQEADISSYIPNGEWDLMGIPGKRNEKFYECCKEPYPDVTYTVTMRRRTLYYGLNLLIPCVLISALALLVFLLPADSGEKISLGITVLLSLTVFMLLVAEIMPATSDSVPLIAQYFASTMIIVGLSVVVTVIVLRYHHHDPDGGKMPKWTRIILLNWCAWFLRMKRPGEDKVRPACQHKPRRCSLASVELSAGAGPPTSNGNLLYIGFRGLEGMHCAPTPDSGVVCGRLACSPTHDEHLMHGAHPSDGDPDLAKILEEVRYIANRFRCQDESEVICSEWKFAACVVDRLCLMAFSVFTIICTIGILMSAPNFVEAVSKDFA

What is called EC50 is the midpoint of the concentration-response curve. A high value points to a need for much substance. As a reminder, the IC50 is the concentration needed to halve the response being measured. By Ki is commonly meant the equilibrium dissociation constant of an inhibitor or competing ligand from its target. Low values mean higher affinity, high ones lower affinity. Usually clearance stands for the volume of plasma or blood freed of the substance per unit of time. Read a low clearance as inefficient removal. Usually bioavailability stands for the share of a dose that reaches the circulation, judged against a reference dose that is usually intravenous. A higher bioavailability goes with good availability. On to `COc1ccc2nc(NC3=NC[C@@]4(CN5CCC4CC5)O3)sc2c1`, for which the EC50 in [1] was 400 nM; in [2], 140 nM; in series [12], greater than 100 µM; in [13], greater than 100 µM; in [14], greater than 100 µM. Moreover, the half-maximal inhibitory concentration (IC50) in series [3] turned out to be 9.1 µM; in series [20], 1300 nM. The “Ratio IC50/EC50” value in series [4] is 66; in series [5], greater than 700; in series [6] it was greater than 700; in series [7], greater than 700. Besides, the remaining at 10 min in [8], in series [9] and in series [10] was greater than 60% each time. Besides, the Ki in series [11] fell in the range of 38 to 51 nM. For the same compound, the clearance in series [15] amounted to 320 mL/min/kg. For the same compound, in series [16], the bioavailability was 24%. Also, the concentration at 0.5 h in [17] was found to be 760 nM; in [18], 5.3 µM. Moreover, the Kp in [19] is 7. For the same compound, the result in the series with Mus musculus was Active.

The values above are taken from ChEMBL document CHEMBL3877302, “Design and Synthesis of a New Series of 4-Heteroarylamino-1'-azaspiro[oxazole-5,3'-bicyclo[2.2.2]octanes as α7 Nicotinic Receptor Agonists. 1. Development of Pharmacophore and Early Structure-Activity Relationship” (J Med Chem, 2016).
